# Measurements from patent US10787477B2, “Solid form of 4′-thio-2′-fluoronucleoside phosphamide compound and preparation method therefor and use thereof” (SICHUAN KELUN-BIOTECH BIOPHARMACEUTICAL CO., LTD., priority 2016, dated 2020).
# How the values were obtained:
# [1] = Drug excretion experiment in mice (radioactivity recovery in urine and feces); type: in vivo, ICR mice
# Protocol: Crystalline form A having a radioisotope ([^14C] crystalline form A) is formulated as a suspension in 0.5% sodium carboxymethylcellulose (CMC-Na), and ICR mice were administered by single gavage at a dose of 117 μCi/4.08 mg/kg [^14C] crystalline form A. The absorption and excretion characteristics of crystalline form A were examined by measuring the radioactivity recovery in urine and feces.
# [2] = Stability relationship (slurry of crystalline forms in water pre-saturated with form A); type: physicochemical; settings: slurried in H2O pre-saturated with crystalline form A, room temperature, about 4 days
# Protocol: An equal weight of each of crystalline forms A, B and D (8 mg each) was weighed and respectively added to a H2O solution (0.3 ml) pre-saturated with a sample of crystalline form A at room temperature, and the resulting suspension was slurried at room temperature for about 4 days before isolation of the solid. The wet and dry samples were respectively subjected to XRPD pattern detection.
# [3] = Equilibrium solubility study in deionized water; type: physicochemical; settings: for crystal transformation (XRPD of the solid): dispersed in water for 24 hours
# Protocol: About 2.0 to 5.0 mg of each of crystalline form A, crystalline form B and crystalline form D of the compound of Formula (I) was weighed, added to a 3 ml vial, and added with 1.0 ml of deionized water. The resulting suspension was then placed in a rotary incubator (rotation speed was 25 rpm), and equilibrated in a biochemical incubator at 25° C. for 24 hours before 0.8 ml of the suspension was taken. The suspension was centrifuged (6000 rpm, 15 minutes), the supernatant was detected by HPLC for solubility, and the XRPD pattern of the solid was detected.
# [4] = Light experiment; type: physicochemical; settings: light intensity of 4500 1×, 25° C., RH 25%
# Protocol: (§1) Crystalline form A of the compound of Formula (I) was placed under the conditions of a light intensity of 4500 1×, 25° C., and RH 25% for 30 days, and samples were taken on Day 0, 5, 11 and 30, respectively, to observe changes in the properties of the samples. The specific optical rotation was measured with a polarimeter, the loss on drying was measured, and the total impurity content was measured by HPLC.
# [5] = High humidity experiment; type: physicochemical; settings: 25° C. and RH 75%
# Protocol: as §1, with “under a high humidity condition” for “under the conditions”, “of” for “of a light intensity of 4500 1×,”, “25° C.” for “25° C.,”, “RH 75%” for “RH 25%”, “taken at” for “taken on”, “5, 10,” for “5, 11”
# [6] = Pharmacokinetic experiment in beagle dogs; type: in vivo; settings: single gavage
# Protocol: Crystalline form A of the compound of Formula (I) was formulated as a suspension in 0.5% CMC-Na, and administered by single gavage to beagle dogs. The single gavage doses were 0.1 mg/kg, 0.2 mg/kg and 0.4 mg/kg, respectively.
# [7] = Pharmacokinetic experiment in mice; type: in vivo, ICR mice; settings: single gavage
# Protocol: Crystalline form A of the compound of Formula (I) was formulated as a suspension in 0.5% sodium carboxymethylcellulose (CMC-Na), and ICR mice were administered by single gavage to investigate the pharmacokinetic characteristics. The single gavage doses were 2 mg/kg, 4 mg/kg and 8 mg/kg, respectively.
# The pharmacokinetic parameters were each calculated according to the concentration-time curve of metabolite I in plasma.
# [8] = High temperature experiment; type: physicochemical; settings: 60° C.
# Protocol: as §1, with “was allowed to stand at a high temperature” for “was placed under the conditions”, “of 60° C.” for “of a light intensity of 4500 1×, 25° C., and RH 25%”, “taken at” for “taken on”, “5, 10,” for “5, 11”
# [9] = Solid state stability at 40° C./75% RH; type: physicochemical; settings: open container, 8 days
# Protocol: A suitable amount of crystalline form A of the compound of Formula (I) was weighed as a test sample, and it was left in an open container for 8 days under conditions of 40° C./75% RH (RH means relative humidity). The XRPD pattern of the test sample after the treatment was detected, and the purity was measured by HPLC.
# [10] = inferred from urine radioactivity recovery
structure (smiles),measurement,setting,value
CC(C)OC(=O)[C@H](C)N[P@](=O)(OC[C@H]1S[C@@H](n2ccc(N)nc2=O)[C@@H](F)[C@@H]1O)Oc1ccccc1 [[^14C] crystalline form A],radioactivity recovery in urine,"[1]; single gavage 117 μCi/4.08 mg/kg, within 0 to 120 hours",78.7%
same,"radioactive substances excreted in urine and feces, of the administered amount","[1]; single gavage, within 48 hours after administration",84.5%
"CC(C)OC(=O)[C@H](C)N[P@](=O)(OC[C@H]1S[C@@H](n2ccc(N)nc2=O)[C@@H](F)[C@@H]1O)Oc1ccccc1 [crystalline form D, (S)-isopropyl 2-(((S)-(((2R,3S,4S,5R)-5-(4-amino-2-oxopyrimidin-1(2H)-yl)-4-fluoro-3-hydroxytetrahydrothiophen-2-yl)methoxy)(phenoxy)phosphoryl)amino)propanoate]",stability relationship / conversion of crystalline form (XRPD),[2],converted to crystalline form A
same,crystal transformation (XRPD of the solid),[3]; 25° C.,underwent crystal transformation
"CC(C)OC(=O)[C@H](C)N[P@](=O)(OC[C@H]1S[C@@H](n2ccc(N)nc2=O)[C@@H](F)[C@@H]1O)Oc1ccccc1 [crystalline form B, (S)-isopropyl 2-(((S)-(((2R,3S,4S,5R)-5-(4-amino-2-oxopyrimidin-1(2H)-yl)-4-fluoro-3-hydroxytetrahydrothiophen-2-yl)methoxy)(phenoxy)phosphoryl)amino)propanoate]",stability relationship / conversion of crystalline form (XRPD),[2],converted to crystalline form A
same,solubility in water,"[3]; deionized water, 25° C., after 24 hours, HPLC",~1800 µg/mL
same,crystal transformation (XRPD of the solid),[3]; 25° C.,did not undergo crystal transformation
"CC(C)OC(=O)[C@H](C)N[P@](=O)(OC[C@H]1S[C@@H](n2ccc(N)nc2=O)[C@@H](F)[C@@H]1O)Oc1ccccc1 [crystalline form A, (S)-isopropyl 2-(((S)-(((2R,3S,4S,5R)-5-(4-amino-2-oxopyrimidin-1(2H)-yl)-4-fluoro-3-hydroxytetrahydrothiophen-2-yl)methoxy)(phenoxy)phosphoryl)amino)propanoate]",appearance,[4]; 30 days,no change in the appearance
same,variation in the specific optical rotation,[4]; Day 0 to Day 30,≤ 3 °
same,loss on drying %,[4]; different time points,≤ 1.0%
same,total impurity content detected by HPLC,[4]; different time points,remained substantially unchanged
same,absolute bioavailability by intragastric administration,[1]; [10],above 78.7%
same,proportion of the drug ingredient absorbed into the blood by oral administration,[1]; [10],at least 78.7%
same,appearance,[5]; 30 days,no change in the appearance
same,variation in the specific optical rotation,[5]; Day 0 to Day 30,≤ 1 °
same,loss on drying %,[5]; different time points,≤ 1.0%
same,total impurity content detected by HPLC,[5]; different time points,remained substantially unchanged
same,stability relationship / conversion of crystalline form (XRPD),[2],more stable at room temperature
same,metabolism upon entering the body,[6],rapidly metabolized as pharmacologically active metabolite I
same,metabolism upon entering the body,[7],rapidly metabolized as pharmacologically active metabolite I
same,solubility at 24 h,"[3]; deionized water, 25 °C, water, thermodynamic from solid, deionized water, after 24 hours, HPLC",~1000 µg/mL
same,crystal transformation (XRPD of the solid),[3]; 25° C.,did not undergo crystal transformation
same,appearance,[8]; 30 days,no change in the appearance
same,variation in the specific optical rotation,[8]; Day 0 to Day 30,≤ 2 °
same,loss on drying %,[8]; different time points,≤ 1.07%
same,total impurity content detected by HPLC,[8]; different time points,remained substantially unchanged
same,crystal transformation (XRPD),[9],did not undergo crystal transformation
same,relative purity of the sample (HPLC),[9],99.9%
